Experimental findings from ChEMBL document CHEMBL5252627, “Antiangiogenic Pterocarpan and Flavonoid Constituents of Erythrina lysistemon” (J Nat Prod, 2023) are described below.

Data set [1] in a line: Antiproliferative activity against human HREC cells assessed as cell growth inhibition incubated for 44 hrs by AlamarBlue reagent based fluorescence assay. Type of data set: functional.
Data set [2] can be described thus: Cytotoxicity against human ARPE-19 cells assessed as cell growth inhibition incubated for 44 hrs by AlamarBlue reagent based fluorescence assay. Type of data set: toxicity.
Another data set concerns HREC. As to the kind of experiment: Antiangiogenic activity against human HREC cells assessed as inhibition of invitro tubule formation by measuring tubule length at 0.05 to 50 uM and measured after 8 hrs by Matrigel based bright-field microscopy. The class given is functional, cell-based. Conditions: dose 0.05-50 µM.

One may read the GI50 as the concentration that inhibits growth by half. On to `COc1ccc(CC2COc3cc(OC)c(OC)c(OC)c3C2=O)cc1OC(=O)[C@H](Cc1ccccc1)NC(=O)OC(C)(C)C` (some centres not stated), for which the GI50 in data set [1] was 0.018 µM. For the same compound, the GI50 at 44 h in data set [2] is above 100 µM.
Consider `CC(C)=CCc1c(O)ccc2c1OC[C@H]1c3ccc4c(c3O[C@@H]21)CC(O)C(C)(C)O4` (some centres not stated), for which the GI50 in data set [1] came out at 4.67 µM. Also, the Activity entry with HREC is “Dose-Dependent Effect”. Also, in data set [2], the GI50 at 44 h was above 100 µM.
Regarding `CC1(C)C=Cc2c(ccc3c2O[C@H]2c4ccc5c(c4OC[C@@H]32)C=CC(C)(C)O5)O1`, the GI50 in data set [1] was above 100 µM. The GI50 at 44 h in data set [2] is above 100 µM.
Take `CC(C)=CCc1cc2c(c(CC=C(C)C)c1O)OC[C@@H](c1ccc(O)cc1O)C2=O`: the GI50 in data set [1] was found to be 5.85 µM. The Activity result with HREC is “Dose-Dependent Effect”. For the same compound, the GI50 at 44 h in data set [2] is above 100 µM.
Taken in the same sequence, the figures for `CC(C)=CCc1cc2c(c(CC=C(C)C)c1O)OC[C@@H](c1ccc(O)cc1O)C2` were 3.65 µM, “Dose-Dependent Effect” and above 100 µM.
The matching figures for `CC(C)=CCc1c(O)ccc2c1O[C@H]1c3ccc(O)c(CC=C(C)C)c3OC[C@@H]21` [ERYBRAEDIN A]: 4.21 µM, “Dose-Dependent Effect” and above 100 µM.
Taken in the same sequence, the figures for `CC(C)=CCc1cc2c(cc1O)OC[C@H]1c3ccc(O)c(CC=C(C)C)c3O[C@@H]21` [ERYBRAEDIN C] were 2.57 µM, “Dose-Dependent Effect” and above 100 µM.
On to `CC1(C)C=Cc2c(ccc3c2O[C@H]2c4ccc(O)cc4OC[C@@H]32)O1` [PHASEOLIN], for which the GI50 in data set [1] is 4.65 µM. For the same compound, in the data set with HREC, the Activity result is “Dose-Dependent Effect”. For the same compound, the GI50 at 44 h in data set [2] is above 100 µM.
As for `CC(C)=CCc1c(O)ccc2c1O[C@H]1c3ccc(O)cc3OC[C@@H]21` [PHASEOLLIDIN], the GI50 in data set [1] was above 100 µM. The GI50 at 44 h in data set [2] is above 100 µM.
`COc1ccc2c(c1CC=C(C)C)O[C@H]1c3ccc(O)cc3OC[C@@H]21` [SANDWICENSIN]: the GI50 in data set [1] is 5.91 µM. In the data set on HREC, the Activity result is “Dose-Dependent Effect”. The GI50 at 44 h in data set [2] was above 100 µM.
